Source: ChEMBL document CHEMBL5244223, “l,8-Naphthalimide based DNA intercalators and anticancer agents. A systematic review from 2007 to 2017” (Eur J Med Chem, 2018)

Assays:
HCT-116 [1] = assay: Cytotoxicity against human HCT-116 cells assessed as inhibition of cell growth incubated for 48 hrs by MTT assay; format: functional, cell-based; conditions: HCT-116, 48 h
K562 = assay: Cytotoxicity against human K562 cells assessed as inhibition of cell growth incubated for 48 hrs by MTT assay; format: functional, cell-based; conditions: K562, 48 h
HepG2 = assay: Cytotoxicity against human HepG2 cells assessed as inhibition of cell growth incubated for 48 hrs by MTT assay; format: functional, cell-based; conditions: HepG2, 48 h
SMMC-7721 = assay: Cytotoxicity against human SMMC-7721 cells assessed as inhibition of cell growth incubated for 48 hrs by MTT assay; format: functional, cell-based; conditions: SMMC-7721, 48 h
HCT-15 = assay: Cytotoxicity against human HCT-15 cells assessed as inhibition of cell growth incubated for 24 hrs by sulforhodamine B assay; format: functional, cell-based; conditions: HCT-15, 24 h
Clupea harengus = assay: Binding affinity to Atlantic herring DNA assessed as binding constant by fluorescence based EtBr-UV absorption spectral analysis
Jurkat = assay: Antiproliferative activity against human Jurkat cells assessed as inhibition of cell proliferation incubated for 72 hrs by MTT assay; format: functional, cell-based
Escherichia coli = assay: Antibacterial activity against Escherichia coli JM109 assessed as inhibition of bacterial growth incubated for 24 hrs by two-fold serial dilution assay; format: functional
Staphylococcus aureus [2] = assay: Antibacterial activity against Staphylococcus aureus ATCC25923 assessed as inhibition of bacterial growth incubated for 24 hrs by two-fold serial dilution assay; format: functional
Micrococcus luteus = assay: Antibacterial activity against Micrococcus luteus assessed as inhibition of bacterial growth incubated for 24 hrs by two-fold serial dilution assay; format: functional
Staphylococcus aureus [3] = assay: Antibacterial activity against methicillin-resistant Staphylococcus aureus N315 assessed as inhibition of bacterial growth incubated for 24 hrs by two-fold serial dilution assay; format: functional
Pseudomonas aeruginosa = assay: Antibacterial activity against Pseudomonas aeruginosa assessed as inhibition of bacterial growth incubated for 24 hrs by two-fold serial dilution assay; format: functional
Bacillus subtilis = assay: Antibacterial activity against Bacillus subtilis ATCC6633 assessed as inhibition of bacterial growth incubated for 24 hrs by two-fold serial dilution assay; format: functional
Proteus = assay: Antibacterial activity against Proteus ATCC13315 assessed as inhibition of bacterial growth incubated for 24 hrs by two-fold serial dilution assay; format: functional
Salmonella typhi = assay: Antibacterial activity against Salmonella enterica subsp. enterica serovar Typhi assessed as inhibition of bacterial growth incubated for 24 hrs by two-fold serial dilution assay; format: functional
Salmon testes DNA = assay: Binding affinity to salmon Testis DNA assessed as equilibrium binding constant by steady-state fluorescence spectroscopic analysis; conditions: Salmo salar
HeLa = assay: Cytotoxicity against human HeLa cells assessed as inhibition of cell growth by MTT assay; format: functional, cell-based
Calf thymus DNA = assay: Binding affinity to calf thymus DNA assessed as binding constant by fluorescence based EtBr-displacement based UV-Vis spectroscopic analysis; format: nucleic-acid assay; conditions: Bos taurus
BGC-823 = assay: Antiproliferative activity against human BGC-823 cells assessed as inhibition of cell proliferation incubated for 24 hrs by MTT assay; format: functional, cell-based; conditions: BGC-823, 24 h
L02 = assay: Antiproliferative activity against human HL7702 cells assessed as inhibition of cell proliferation incubated for 24 hrs by MTT assay; format: functional, cell-based; conditions: L02, 24 h
MCF7 = assay: Antiproliferative activity against human MCF7 cells assessed as inhibition of cell proliferation incubated for 24 hrs by MTT assay; format: functional, cell-based; conditions: MCF7, 24 h
HCT-116 [4] = assay: Cytotoxicity against human HCT-116 cells assessed as inhibition of cell growth incubated for 72 hrs by MTT assay; format: functional, cell-based; conditions: HCT-116, 72 h
HL-60 = assay: Cytotoxicity against human HL-60 cells assessed as inhibition of cell growth incubated for 96 hrs by MTT assay; format: functional, cell-based; conditions: HL-60, 96 h
U-937 = assay: Cytotoxicity against human U-937 cells assessed as inhibition of cell growth incubated for 96 hrs by MTT assay; format: functional, cell-based; conditions: U-937, 96 h

## CCCCCOC(=O)c1ccc2c3c(cccc13)C(=O)N(CCN(C)C)C2=O
HCT-116 [1]
  IC50: > 50 µM
K562
  IC50: > 50 µM
HepG2
  IC50: > 50 µM
SMMC-7721
  IC50: > 50 µM

## NCCN1C(=O)c2cccc3cccc(c23)C1=O
HCT-15
  IC50: 2.44 µM

## NCCCCNCCCCN1C(=O)c2cccc3cccc(c23)C1=O
Clupea harengus
  Kb: 1.15 10^4/M

## O=C1c2cccc3cccc(c23)C(=O)N1CCNCc1ccccn1
Jurkat
  IC50: 5.58 µM

## O=C1c2cccc3cccc(c23)C(=O)N1CCn1cc(-c2ccccc2)nn1
HCT-15
  IC50: 2.44 µM

## O=C1c2cccc3c(Sc4nc5ccccc5n4Cc4ccc(Cl)cc4)ccc(c23)C(=O)N1CCCCn1cncn1
Escherichia coli
  MIC: > 512 µg/mL
Staphylococcus aureus [2]
  MIC: > 512 µg/mL
Micrococcus luteus
  MIC: > 512 µg/mL
Staphylococcus aureus [3]
  MIC: > 512 µg/mL
Pseudomonas aeruginosa
  MIC: > 512 µg/mL
Bacillus subtilis
  MIC: > 512 µg/mL
Proteus
  MIC: > 512 µg/mL
Salmonella typhi
  MIC: > 512 µg/mL

## O=C1c2cccc3cccc(c23)C(=O)N1CC[n+]1ccccc1
Salmon testes DNA
  Kb: 2 10^4/M

## NCCCCN1C(=O)c2cccc3cccc(c23)C1=O
HCT-15
  IC50: 2.44 µM

## CN(C)CCN1C(=O)c2cccc3c2c(cc2nc(C(F)(F)F)c(C(F)(F)F)nc23)C1=O
HeLa
  IC50: 3.8 µM

## O=C1c2cccc3cccc(c23)C(=O)N1CCCn1cc(-c2ccccc2)nn1
HCT-15
  IC50: 2.44 µM

## CCCOC(=O)c1ccc2c3c(cccc13)C(=O)N(CCN(C)C)C2=O
HCT-116 [1]
  IC50: > 50 µM
K562
  IC50: > 50 µM
HepG2
  IC50: > 50 µM
SMMC-7721
  IC50: > 50 µM

## O=C1c2cccc3c([N+](=O)[O-])ccc(c23)C(=O)N1c1ccc(-c2cc[n+]3c(c2)-c2cccc[n+]2CC3)cc1
Calf thymus DNA
  K: 1.7 10^7/M

## CCN(CC)CCN1C(=O)c2cccc3c2c(cc2[nH]c(-c4c[nH]c5ccccc45)nc23)C1=O
BGC-823
  IC50: 8.2 µM
L02
  IC50: 8.2 µM
MCF7
  IC50: 8.2 µM

## O=C1c2cccc3cccc(c23)C(=O)N1CCCCNCc1ccccn1
Jurkat
  IC50: 5.58 µM

## O=C1c2cccc3c(Sc4nc5ccccc5n4Cc4ccc(F)cc4F)ccc(c23)C(=O)N1CCCCn1cncn1
Escherichia coli
  MIC: > 512 µg/mL
Staphylococcus aureus [2]
  MIC: > 512 µg/mL
Micrococcus luteus
  MIC: > 512 µg/mL
Staphylococcus aureus [3]
  MIC: > 512 µg/mL
Pseudomonas aeruginosa
  MIC: > 512 µg/mL
Bacillus subtilis
  MIC: > 512 µg/mL
Proteus
  MIC: > 512 µg/mL
Salmonella typhi
  MIC: > 512 µg/mL

## O=C1c2cccc3cccc(c23)C(=O)N1CCCCn1cc(-c2ccccc2)nn1
HCT-15
  IC50: 2.44 µM

## O=C1c2cccc3cccc(c23)C(=O)N1CCCN(CCCN(CCCl)CCCl)CCCN1C(=O)c2cccc3cccc(c23)C1=O
HCT-116 [4]
  IC50: 0.35 µM

## O=C1c2cccc3cccc(c23)C(=O)N1CCCNCCN(CCO)CCO
HCT-116 [4]
  IC50: > 40 µM

## NCCNCCCCN1C(=O)c2cccc3cccc(c23)C1=O
Clupea harengus
  Kb: 1.15 10^4/M

## CCNN1C(=O)c2cccc3c2c(cc2[nH]c(-c4c[nH]c5ccccc45)nc23)C1=O
BGC-823
  IC50: 0.7 µM
L02
  IC50: 0.7 µM
MCF7
  IC50: 0.7 µM

## CCCCOC(=O)c1ccc2c3c(cccc13)C(=O)N(CCN(C)C)C2=O
HCT-116 [1]
  IC50: > 50 µM
K562
  IC50: > 50 µM
HepG2
  IC50: > 50 µM
SMMC-7721
  IC50: > 50 µM

## CCOC(=O)c1ccc2c3c(cccc13)C(=O)N(CCN(C)C)C2=O
HCT-116 [1]
  IC50: 13.7 µM
K562
  IC50: 13.7 µM
HepG2
  IC50: 13.7 µM
SMMC-7721
  IC50: 13.7 µM

## O=C1c2cccc3cccc(c23)C(=O)N1CCCNCCCN(CCO)CCO
HCT-116 [4]
  IC50: 6.96 µM

## O=C1c2cccc3c(Sc4nc5ccccc5n4Cc4ccccc4Cl)ccc(c23)C(=O)N1CCCCn1cncn1
Escherichia coli
  MIC: > 512 µg/mL
Staphylococcus aureus [2]
  MIC: > 512 µg/mL
Micrococcus luteus
  MIC: > 512 µg/mL
Staphylococcus aureus [3]
  MIC: > 512 µg/mL
Pseudomonas aeruginosa
  MIC: > 512 µg/mL
Bacillus subtilis
  MIC: > 512 µg/mL
Proteus
  MIC: > 512 µg/mL
Salmonella typhi
  MIC: > 512 µg/mL

## O=C1c2cccc3cccc(c23)C(=O)N1CCCC/N=C/c1ccccn1
Jurkat
  IC50: 5.58 µM

## O=C1c2cccc3c([N+](=O)[O-])ccc(c23)C(=O)N1CCCO
HL-60
  IC50: 0.7 µM
U-937
  IC50: 0.7 µM

## O=C1c2cccc3cccc(c23)C(=O)N1CCCNCCCN(CCCl)CCCl
HCT-116 [4]
  IC50: 1.4 µM

## O=C1c2cccc3c2c(cc2[nH]c(-c4c[nH]c5ccccc45)nc23)C(=O)N1CCCO
BGC-823
  IC50: 0.7 µM
L02
  IC50: 0.7 µM
MCF7
  IC50: 0.7 µM
